Source: patent US20080242649A1, “New Combination 665” (priority 2007, published 2008)
Where a name gives a salt, the structure may show the parent alone.

Columns and labels:
Adrenergic β2 = target: T1, Adrenergic β2 (Homo sapiens, UniProt P07550); assay: Adrenergic β2 mediated cAMP production in H292 cells (AlphaScreen); type: cell-based
T1 construct: Adherent H292 cells were removed from tissue culture flasks; endogenous in cells; host or cells: H292 cells
Protocol: Adrenergic β2 mediated cAMP production
H292 cells were grown in 225 cm2 flasks incubator at 37° C., 5% CO2 in RPMI medium containing, 10% (v/v) FBS (foetal bovine serum) and 2 mM L-glutamine.
Adherent H292 cells were removed from tissue culture flasks by treatment with Accutase™ cell detachment solution for 15 minutes. Flasks were incubated for 15 minutes in a humidified incubator at 37° C., 5% CO2. Detached cells were re-suspended in RPMI media (containing 10% (v/v) FBS and 2 mM L-glutamine) at 0.05×10^6 cells per mL. 5000 cells in 100 μL were added to each well of a tissue-culture-treated 96-well plate and the cells incubated overnight in a humidified incubator at 37° C., 5% CO2. The culture media was removed and cells were washed twice with 100 μL assay buffer and replaced with 50 μL assay buffer (HBSS solution containing 10 mM HEPES pH7.4 and 5 mM glucose). […]
The concentration of cAMP (cyclic adenosine monophosphate) in the cell lysate was determined using AlphaScreen™ methodology. […] The AlphaScreen™ signal was measured using an EnVision spectrophotometer (Perkin-Elmer Inc.) with the recommended manufacturer's settings. cAMP concentrations were determined by reference to a calibration curve determined in the same experiment using standard cAMP concentrations. […] Intrinsic Activity was expressed as a fraction relative to the maximum activity determined for formoterol in each experiment. […]

[1] = target: T2, recombinant human α1D receptor (Homo sapiens, UniProt P25100); assay: Adrenergic α1D [3H]-prazosin binding, HEK293 membranes; settings: inhibition of [3H]-prazosin binding; read-out: α1 bind pIC50 (converted)
T2 construct: expressed in transfected cells; host or cells: HEK293 cells (membranes)
T2 sequence (P25100 1-572): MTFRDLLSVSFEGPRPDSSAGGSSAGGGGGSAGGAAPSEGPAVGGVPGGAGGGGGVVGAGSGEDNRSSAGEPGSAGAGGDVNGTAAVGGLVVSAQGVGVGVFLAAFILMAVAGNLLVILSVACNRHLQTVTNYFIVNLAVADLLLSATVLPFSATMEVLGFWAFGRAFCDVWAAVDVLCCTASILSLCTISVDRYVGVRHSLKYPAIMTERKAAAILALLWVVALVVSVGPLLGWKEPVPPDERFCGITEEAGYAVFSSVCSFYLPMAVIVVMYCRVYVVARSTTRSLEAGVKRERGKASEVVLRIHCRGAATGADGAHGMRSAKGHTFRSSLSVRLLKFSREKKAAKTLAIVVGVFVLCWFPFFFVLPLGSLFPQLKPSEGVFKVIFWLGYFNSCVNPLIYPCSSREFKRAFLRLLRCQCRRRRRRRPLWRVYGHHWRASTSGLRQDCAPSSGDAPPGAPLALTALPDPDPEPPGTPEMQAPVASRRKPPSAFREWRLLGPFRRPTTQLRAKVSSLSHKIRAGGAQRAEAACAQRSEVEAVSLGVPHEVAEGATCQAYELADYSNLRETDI
Protocol: Membranes were prepared from human embryonic kidney 293 (HEK293) cells expressing recombinant human α1D receptor. These were diluted in Assay Buffer (50 mM HEPES, 1 mM EDTA, 0.1% gelatin, pH 7.4) to provide a final concentration of membranes that gave a clear window between maximum and minimum specific binding.
Assays were performed in U-bottomed 96-well polypropylene plates. 10 μL [^3H]-prazosin (0.3 nM final concentration) and 10 μL of Compound A (10× final concentration) were added to each test well. For each assay plate 8 replicates were obtained for [^3H]-prazosin binding in the presence of 10 μL vehicle (10% (v/v) DMSO in Assay Buffer; defining maximum binding) or 10 μL BMY7378 (10 μM final concentration; defining non-specific binding (NSB)). Membranes were then added to achieve a final volume of 100 μL. […] Five washes with 250 μL wash buffer (50 mM HEPES, 1 mM EDTA, pH 7.4) were performed at 4° C. to remove unbound radioactivity. […] The plates were sealed (TopSeal A) and filter-bound radioactivity was measured with a scintillation counter (TopCount, Packard BioScience) using a 3-minute counting protocol.
Total specific binding (B0) was determined by subtracting the mean NSB from the mean maximum binding. […]

T1 sequence (P07550 whole entry): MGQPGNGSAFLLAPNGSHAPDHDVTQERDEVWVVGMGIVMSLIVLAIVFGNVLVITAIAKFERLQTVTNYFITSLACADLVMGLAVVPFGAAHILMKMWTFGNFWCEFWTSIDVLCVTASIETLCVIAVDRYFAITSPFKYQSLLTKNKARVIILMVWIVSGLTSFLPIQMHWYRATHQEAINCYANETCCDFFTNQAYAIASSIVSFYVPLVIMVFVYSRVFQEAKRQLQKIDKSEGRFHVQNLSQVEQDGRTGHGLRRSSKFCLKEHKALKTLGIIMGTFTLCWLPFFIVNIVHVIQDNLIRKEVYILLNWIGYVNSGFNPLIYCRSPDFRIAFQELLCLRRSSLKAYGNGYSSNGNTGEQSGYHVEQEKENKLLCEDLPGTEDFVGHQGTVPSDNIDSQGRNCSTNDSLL

Compound: CCN(CC)CCN(CCNCCc1ccc(O)c2[nH]c(=O)sc12)C(=O)CCOCCc1cccc2ccccc12 [Compound A, N-[2-(Diethylamino)ethyl]-N-(2-{[2-(4-hydroxy-2-oxo-2,3-dihydro-1,3-benzothiazol-7-yl)ethyl]amino}ethyl)-3-[2-(1-naphthyl)ethoxy]propanamide dihydrobromide]
- EC50 (Adrenergic β2; H292 cells, cAMP, 300 μM rolipram, read-out: β2 pEC50 (converted)): 6.31 nM
- β2 Int Act (Adrenergic β2; Intrinsic Activity as fraction relative to maximum activity of formoterol): 0.8
- IC50 [1]: 251 nM
